IC50 data for 29 compounds are collected here from patent US20250186437A1, “CARBOLINE COMPOUNDS AND USE THEREOF” (PTC Therapeutics, Inc., priority 2021, published 2025).

The subject of this assay is MOLM-13 cells. Kind of assay: MOLM-13 Cell Proliferation Assay (indicator of DHODH inhibition). It is filed as cell-based. The conditions noted are these: Homo sapiens, 72 Hours of culture, CellTiter-Glo, no uridine. Summed up: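 Low-passage MOLM-13 cells (10^4/well) in RPMI 1640 + 10% FBS exposed to compound (0.5% DMSO final) for 72 h at 37 °C, 5% CO2. Viability read by CellTiter-Glo luminescence; growth reflects de novo pyrimidine synthesis dependent on DHODH.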
(In ATP-based viability assays light output follows the ATP content of the culture.)

Usually IC50 stands for the midpoint of a concentration-inhibition curve. Low values mean greater potency, high ones weaker potency.

`Cc1ccnc(N2CCc3c([nH]c4cc(F)c(Cl)cc34)C2c2ccc(N(C)C)nc2)n1` (centres unmarked) [Compound 126, 5-[6-chloro-7-fluoro-2-(4-methylpyrimidin-2-yl)-2,3,4,9-tetrahydro-1H-pyrido[3,4-b]indol-1-yl]-N,N-dimethylpyridin-2-amine] gave an IC50 of 21.3 nM. Next, `Fc1ccc(C2c3[nH]c4cc(F)c(Cl)cc4c3CCN2c2ncc(Cl)cn2)cc1` (centres unmarked) [Compound 4, 6-chloro-2-(5-chloropyrimidin-2-yl)-7-fluoro-1-(4-fluorophenyl)-2,3,4,9-tetrahydro-1H-pyrido[3,4-b]indole]: 59.7 nM. For the compound `FC(F)(F)c1ccnc(N2CCc3c([nH]c4ccc(Cl)cc34)C2c2cnc(N3CCC3)nc2)n1` (centres unmarked) [Compound 344, 1-[2-(azetidin-1-yl)pyrimidin-5-yl]-6-chloro-2-[4-(trifluoromethyl)pyrimidin-2-yl]-2,3,4,9-tetrahydro-1H-pyrido[3,4-b]indole], the IC50 was 9.5 nM.

For the compound `Cc1ccc([C@H]2c3[nH]c4ccc(Cl)cc4c3CCN2c2nc(C#N)cc(C(F)(F)F)n2)cc1` [Compound 425, 2-[(1S)-6-chloro-1-(4-methylphenyl)-1,3,4,9-tetrahydro-2H-pyrido[3,4-b]indol-2-yl]-6-(trifluoromethyl)pyrimidine-4-carbonitrile], the IC50 was 1.2 nM. Then `Fc1c(C2c3[nH]c4ccc(Cl)cc4c3CCN2c2nccc(C(F)(F)F)n2)ccc(N2CCOCC2)c1F` (centres unmarked) [Compound 279, 6-chloro-1-[2,3-difluoro-4-(morpholin-4-yl)phenyl]-2-[4-(trifluoromethyl)pyrimidin-2-yl]-2,3,4,9-tetrahydro-1H-pyrido[3,4-b]indole], with 5.1 nM; and `Cc1ccnc(N2CCc3c([nH]c4ccc(Cl)cc34)C2c2ccc(C)c(F)c2F)n1` (centres unmarked) [Compound 203, 6-chloro-1-(2,3-difluoro-4-methylphenyl)-2-(4-methylpyrimidin-2-yl)-2,3,4,9-tetrahydro-1H-pyrido[3,4-b]indole], with 1.6 nM. Next, `Cc1ccc(C2c3[nH]c4ccc(Cl)c([N+](=O)[O-])c4c3CCN2c2nccc(C(F)(F)F)n2)c(F)c1F` (centres unmarked) [Compound 266, 6-chloro-1-(2,3-difluoro-4-methylphenyl)-5-nitro-2-[4-(trifluoromethyl)pyrimidin-2-yl]-2,3,4,9-tetrahydro-1H-pyrido[3,4-b]indole]: 1.3 nM; `COC(=O)c1ccnc(N2CCc3c([nH]c4ccc(Cl)c(F)c34)C2c2ccc(C#N)cc2)n1` (centres unmarked) [Compound 104, methyl 2-[6-chloro-1-(4-cyanophenyl)-5-fluoro-1,3,4,9-tetrahydro-2H-pyrido[3,4-b]indol-2-yl]pyrimidine-4-carboxylate]: 30.4 nM; `Cc1ccc(C2c3[nH]c4cc(F)c(Cl)cc4c3CCN2c2ncc(F)c(C#N)n2)c(F)c1F` (centres unmarked) [Compound 162, 2-[6-chloro-1-(2,3-difluoro-4-methylphenyl)-7-fluoro-1,3,4,9-tetrahydro-2H-pyrido[3,4-b]indol-2-yl]-5-fluoropyrimidine-4-carbonitrile]: 2.4 nM. The compound `Cc1ccc([C@H]2c3[nH]c4ccc(Cl)cc4c3CCN2c2nc(C(F)F)nc(C(F)(F)F)n2)c(F)c1F` [Compound 510, (1S)-6-chloro-1-(2,3-difluoro-4-methylphenyl)-2-[4-(difluoromethyl)-6-(trifluoromethyl)-1,3,5-triazin-2-yl]-2,3,4,9-tetrahydro-1H-pyrido[3,4-b]indole] yielded an IC50 of 0.1 nM. Regarding `Cc1ccc([C@H]2c3[nH]c4ccc(-n5nccn5)cc4c3CCN2c2nc(C(F)(F)F)cc(C(F)(F)F)n2)c(F)c1F` [Compound 519, (1S)-2-[4,6-bis(trifluoromethyl)pyrimidin-2-yl]-1-(2,3-difluoro-4-methylphenyl)-6-(2H-1,2,3-triazol-2-yl)-2,3,4,9-tetrahydro-1H-pyrido[3,4-b]indole], the midpoint of inhibition, the IC50, lay at 0.3 nM. Compared with the last compound, the IC50 is about 3-fold higher.

As for `CC1(C)CN(c2ncc([C@H]3c4[nH]c5ccc(Cl)cc5c4CCN3c3nc(C(F)(F)F)cc(C(F)(F)F)n3)cn2)CCN1` [Compound 496, (1S)-2-[4,6-bis(trifluoromethyl)pyrimidin-2-yl]-6-chloro-1-[2-(3,3-dimethylpiperazin-1-yl)pyrimidin-5-yl]-2,3,4,9-tetrahydro-1H-pyrido[3,4-b]indole], the half-maximal inhibitory concentration (IC50) is 2.8 nM. This IC50 lies about 9.3-fold higher than the previous one.

Turning to `Cc1ccc(C2c3[nH]c4ccc(Cl)cc4c3CCN2c2ncc(F)cn2)c(F)c1F` (centres unmarked) [Compound 401, 6-chloro-1-(2,3-difluoro-4-methylphenyl)-2-(5-fluoropyrimidin-2-yl)-2,3,4,9-tetrahydro-1H-pyrido[3,4-b]indole], the IC50 was 3.2 nM. For `Cc1nc(N2CCc3c([nH]c4ccc(Cl)c(F)c34)C2c2ccc(CCCCO)cc2)ncc1F` (centres unmarked) [Compound 246, 4-{4-[6-chloro-5-fluoro-2-(5-fluoro-4-methylpyrimidin-2-yl)-2,3,4,9-tetrahydro-1H-pyrido[3,4-b]indol-1-yl]phenyl}butan-1-ol], half-maximal inhibition (IC50) was put at 2.8 nM.

Turning to `Fc1cc2[nH]c3c(c2cc1Cl)CCN(c1nccc(Cl)n1)C3c1cccc(F)c1F` (centres unmarked) [Compound 77, 6-chloro-2-(4-chloropyrimidin-2-yl)-1-(2,3-difluorophenyl)-7-fluoro-2,3,4,9-tetrahydro-1H-pyrido[3,4-b]indole], the 50% inhibitory concentration (IC50) was found to be 7.4 nM. Next, `Cc1ccc([C@H]2c3[nH]c4ccc(Cl)cc4c3CCN2c2nc(C#N)cc(C#N)n2)cc1` [Compound 397, 2-[(1S)-6-chloro-1-(4-methylphenyl)-1,3,4,9-tetrahydro-2H-pyrido[3,4-b]indol-2-yl]pyrimidine-4,6-dicarbonitrile]: 2.4 nM; `Cc1ccc([C@H]2c3[nH]c4ccc(Cl)cc4c3CCN2c2nc(C)nc(C#N)n2)cc1` [Compound 411, 4-[(1S)-6-chloro-1-(4-methylphenyl)-1,3,4,9-tetrahydro-2H-pyrido[3,4-b]indol-2-yl]-6-methyl-1,3,5-triazine-2-carbonitrile]: 3.7 nM; `FC(F)c1ccnc(N2CCc3c([nH]c4ccc(Cl)cc34)C2c2cnc(N3CCOCC3)nc2)n1` (centres unmarked) [Compound 334, 6-chloro-2-[4-(difluoromethyl)pyrimidin-2-yl]-1-[2-(morpholin-4-yl)pyrimidin-5-yl]-2,3,4,9-tetrahydro-1H-pyrido[3,4-b]indole]: 13 nM. Compound `Cc1nc(C)nc(N2CCc3c([nH]c4ccc(N(C)C)cc34)C2c2cnc(N3CCOCC3)nc2)n1` (centres unmarked) [Compound 331, 2-(4,6-dimethyl-1,3,5-triazin-2-yl)-N,N-dimethyl-1-[2-(morpholin-4-yl)pyrimidin-5-yl]-2,3,4,9-tetrahydro-1H-pyrido[3,4-b]indol-6-amine] came in with an IC50 of 102 nM.

In the case of `Cc1nc(N2CCc3c([nH]c4ccc(Cl)cc34)[C@@H]2c2ccc(C)c(F)c2F)nc(C(F)(F)F)n1` [Compound 464, (1S)-6-chloro-1-(2,3-difluoro-4-methylphenyl)-2-[4-methyl-6-(trifluoromethyl)-1,3,5-triazin-2-yl]-2,3,4,9-tetrahydro-1H-pyrido[3,4-b]indole], inhibition was half-maximal at 0.2 nM (IC50). Then `COc1nc(C)nc(N2CCc3c([nH]c4ccc(Cl)cc34)C2c2cnc(N3CCOCC3)nc2)n1` (centres unmarked) [Compound 295, 6-chloro-2-(4-methoxy-6-methyl-1,3,5-triazin-2-yl)-1-[2-(morpholin-4-yl)pyrimidin-5-yl]-2,3,4,9-tetrahydro-1H-pyrido[3,4-b]indole], with 14.7 nM; and `Cc1nc(C)nc(N2CCc3c([nH]c4ccc(Cl)cc34)C2c2cnc(N3CCN(C)CC3)nc2)n1` (centres unmarked) [Compound 380, 6-chloro-2-(4,6-dimethyl-1,3,5-triazin-2-yl)-1-[2-(4-methylpiperazin-1-yl)pyrimidin-5-yl]-2,3,4,9-tetrahydro-1H-pyrido[3,4-b]indole], with 26.3 nM. Then `Cc1ccc([C@H]2c3[nH]c4ccc([N+](=O)[O-])cc4c3CCN2c2nc(C(F)(F)F)nc(C(F)(F)F)n2)c(F)c1F` [Compound 527, (1S)-2-[4,6-bis(trifluoromethyl)-1,3,5-triazin-2-yl]-1-(2,3-difluoro-4-methylphenyl)-6-nitro-2,3,4,9-tetrahydro-1H-pyrido[3,4-b]indole], with 0.6 nM; and `Cc1ccnc(N2CCc3c([nH]c4ccc(Cl)cc34)[C@H]2c2ccc(C)c(F)c2F)n1` [Compound 185, (1R)-6-chloro-1-(2,3-difluoro-4-methylphenyl)-2-(4-methylpyrimidin-2-yl)-2,3,4,9-tetrahydro-1H-pyrido[3,4-b]indole], with 16.2 nM. As for `N#Cc1ccc(C2c3[nH]c4cc(F)c(Cl)cc4c3CCN2c2nccc(Cl)n2)cc1` (centres unmarked) [Compound 18, 4-[6-chloro-2-(4-chloropyrimidin-2-yl)-7-fluoro-2,3,4,9-tetrahydro-1H-pyrido[3,4-b]indol-1-yl]benzonitrile], the 50% inhibitory concentration (IC50) is 13.5 nM. Turning to `Cc1ccc([C@H]2c3[nH]c4ccc(Cl)cc4c3CCN2c2ncnc(C(F)(F)F)n2)c(F)c1F` [Compound 461, (1S)-6-chloro-1-(2,3-difluoro-4-methylphenyl)-2-[4-(trifluoromethyl)-1,3,5-triazin-2-yl]-2,3,4,9-tetrahydro-1H-pyrido[3,4-b]indole], half-maximal inhibition (IC50) was put at 0.8 nM. Take `OCCCc1ccc(C2c3[nH]c4cc(F)c(Cl)cc4c3CCN2c2ncc(F)cn2)cc1` (centres unmarked) [Compound 159, 3-{4-[6-chloro-7-fluoro-2-(5-fluoropyrimidin-2-yl)-2,3,4,9-tetrahydro-1H-pyrido[3,4-b]indol-1-yl]phenyl}propan-1-ol]: the midpoint of inhibition, the IC50, lay at 27.1 nM. Next, `CCc1ccnc(N2CCc3c([nH]c4cc(F)c(Cl)cc34)C2c2ccc(F)cc2)n1` (centres unmarked) [Compound 22, 6-chloro-2-(4-ethylpyrimidin-2-yl)-7-fluoro-1-(4-fluorophenyl)-2,3,4,9-tetrahydro-1H-pyrido[3,4-b]indole]: 57.8 nM; `CN(C)c1ccc(C2c3[nH]c4cc(F)c(Cl)cc4c3CCN2c2nccc(C(F)(F)F)n2)cn1` (centres unmarked) [Compound 122, 5-{6-chloro-7-fluoro-2-[4-(trifluoromethyl)pyrimidin-2-yl]-2,3,4,9-tetrahydro-1H-pyrido[3,4-b]indol-1-yl}-N,N-dimethylpyridin-2-amine]: 8.2 nM.
